# From patent publication US20110070294A1, “Methods for the Administration of Drugs Using Liposomes” (priority 2009, published 2011)
# Test system: bovine blood treated with heparin
# Assay: Hemolysis of heparin-treated bovine blood, absorbance of supernatant at 398 nm
# Conditions: sample added to 1.4 mL heparinized bovine blood, room temperature, 10 minutes
# Experimental: 100 μL of a 5 mg/mL lyophilized docetaxel preparation (50 mM sodium oleate reconstituted with 6% liposome (Doc-100), 200 μL of 5 mg/mL lyophilized docetaxel containing 50 mM sodium oleate and reconstituted with 6% liposome (Doc-200), […] of placebo containing 50 mM sodium oleate and reconstituted with 6% liposome (Placebo-100), 200 μL of placebo containing 50 mM sodium oleate and reconstituted with 6% liposome (Placebo-200), […] of Reverse osmotic deionized water (RODI (positive control)), 50 n1, of 50 mM sodium oleate (Na oleate-50) in isotonic 2.5% glycerol or 100 μL of 50 mM sodium oleate (Na oleate-100), or 200 μL of phosphate buffered saline (negative control)) was added to 1.4 mL of bovine blood treated with heparin. Doc-100 and Doc-200 were prepared using procedures similar to those in Examples 1 and 2. The samples were incubated at room temperature for 10 minutes, and then centrifuged at 8000 rpm for 20 minutes. The supernatant was used for spectral analysis. The absorbance of the samples was measured by UV-scanning the samples at wavelengths from 190 nm to 810 nm. The high absorbance at 398 nm is due to hemolysis of the blood.
structure (smiles),measurement,value
"CCCCCCCC/C=C\CCCCCCCC(=O)[O-].[Na+] [Na oleate-50, sodium oleate]","hemolysis (absorbance at 398 nm, FIG. 1)",complete hemolysis
